Measurements published in ChEMBL document CHEMBL3286252, “Synthesis, biological evaluation and structure-activity relationship of new GABA uptake inhibitors, derivatives of 4-aminobutanamides” (Eur J Med Chem, 2014).
pIC50, pKi: −log10 of the molar value.

Tests used:
[1] = Retardation factor of the compound using hexane/ethanol/TEA at ratio of 7:2:1 as solvent system by thin layer chromatography; type: physicochemical
[2] = target: T1, Sodium- and chloride-dependent GABA transporter 1 (Mus musculus, UniProt P31648); assay: Inhibition of mouse GAT1 expressed in HEK293 cells assessed as decrease in [3H]GABA uptake; type: cell-based
GABA transporter 2 = target: T2, GABA transporter 2 (Mus musculus, UniProt P31651); assay: Inhibition of mouse GAT2 expressed in HEK293 cells assessed as decrease in [3H]GABA uptake; type: cell-based
T2 sequence (P31651 whole entry): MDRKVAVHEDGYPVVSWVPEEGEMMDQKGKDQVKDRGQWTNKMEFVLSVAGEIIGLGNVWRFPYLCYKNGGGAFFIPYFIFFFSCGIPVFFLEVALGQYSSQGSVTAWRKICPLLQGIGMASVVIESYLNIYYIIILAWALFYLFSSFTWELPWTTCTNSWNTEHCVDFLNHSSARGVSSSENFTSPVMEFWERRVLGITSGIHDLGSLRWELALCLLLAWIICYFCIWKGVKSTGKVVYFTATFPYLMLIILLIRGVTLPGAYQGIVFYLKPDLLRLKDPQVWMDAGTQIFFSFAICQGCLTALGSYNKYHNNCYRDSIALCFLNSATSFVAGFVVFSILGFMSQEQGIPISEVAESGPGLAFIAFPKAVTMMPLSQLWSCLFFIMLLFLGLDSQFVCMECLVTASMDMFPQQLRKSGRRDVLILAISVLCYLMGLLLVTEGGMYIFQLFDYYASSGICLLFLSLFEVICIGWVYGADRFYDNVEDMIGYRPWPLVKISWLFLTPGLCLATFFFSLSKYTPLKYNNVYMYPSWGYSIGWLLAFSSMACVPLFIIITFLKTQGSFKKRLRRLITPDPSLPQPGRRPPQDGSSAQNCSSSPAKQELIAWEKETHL

GABA transporter 3 = target: T3, GABA transporter 3 (Mus musculus, UniProt P31649); assay: Inhibition of mouse GAT3 expressed in HEK293 cells assessed as decrease in [3H]GABA uptake; type: cell-based
T3 sequence (P31649 whole entry): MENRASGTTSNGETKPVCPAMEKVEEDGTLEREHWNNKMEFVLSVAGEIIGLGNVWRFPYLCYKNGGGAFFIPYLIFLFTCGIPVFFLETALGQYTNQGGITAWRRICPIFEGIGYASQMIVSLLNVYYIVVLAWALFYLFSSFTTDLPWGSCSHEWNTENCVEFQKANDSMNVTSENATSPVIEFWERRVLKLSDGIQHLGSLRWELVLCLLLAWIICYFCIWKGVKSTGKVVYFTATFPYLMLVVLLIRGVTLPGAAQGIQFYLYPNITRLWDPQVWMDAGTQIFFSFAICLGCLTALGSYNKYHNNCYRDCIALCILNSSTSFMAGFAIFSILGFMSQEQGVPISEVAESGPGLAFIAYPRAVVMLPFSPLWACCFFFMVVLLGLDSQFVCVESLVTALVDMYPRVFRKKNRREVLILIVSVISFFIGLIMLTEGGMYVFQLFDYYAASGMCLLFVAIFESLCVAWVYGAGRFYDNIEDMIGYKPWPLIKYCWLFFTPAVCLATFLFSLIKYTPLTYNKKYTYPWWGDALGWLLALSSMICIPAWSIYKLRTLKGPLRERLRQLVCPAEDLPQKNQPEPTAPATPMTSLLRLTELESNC

GABA transporter 4 = target: T4, GABA transporter 4 (Mus musculus, UniProt P31650); assay: Inhibition of mouse GAT4 expressed in HEK293 cells assessed as decrease in [3H]GABA uptake; type: cell-based
T4 sequence (P31650 whole entry): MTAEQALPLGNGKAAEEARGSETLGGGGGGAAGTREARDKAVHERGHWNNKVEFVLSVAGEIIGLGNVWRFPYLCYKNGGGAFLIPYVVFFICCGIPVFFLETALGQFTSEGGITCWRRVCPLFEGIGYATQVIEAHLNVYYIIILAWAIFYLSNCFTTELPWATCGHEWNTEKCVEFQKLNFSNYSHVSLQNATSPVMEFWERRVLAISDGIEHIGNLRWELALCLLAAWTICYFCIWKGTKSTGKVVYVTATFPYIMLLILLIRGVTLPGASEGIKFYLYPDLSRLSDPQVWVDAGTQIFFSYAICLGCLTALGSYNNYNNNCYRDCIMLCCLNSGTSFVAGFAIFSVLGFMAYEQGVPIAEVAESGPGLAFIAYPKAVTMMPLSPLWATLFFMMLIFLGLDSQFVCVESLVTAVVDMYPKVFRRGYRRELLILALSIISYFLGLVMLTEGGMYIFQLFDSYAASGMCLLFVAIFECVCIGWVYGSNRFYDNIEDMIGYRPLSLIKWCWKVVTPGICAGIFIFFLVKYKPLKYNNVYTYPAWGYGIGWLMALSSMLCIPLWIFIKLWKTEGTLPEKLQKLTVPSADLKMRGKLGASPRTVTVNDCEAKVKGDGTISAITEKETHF

[3] = target: T1, Sodium- and chloride-dependent GABA transporter 1; assay: Displacement of NO711 from mouse GAT1 expressed in HEK293 cells by LC-MS/MS analysis; type: cell-based
[4] = Retardation factor of the compound using 25%NH3/MeOH/DCM/PE at ratio of 45:225:600:90 as solvent system by thin layer chromatography; type: physicochemical
[5] = target: Sodium- and chloride-dependent GABA transporter 1 (Mus musculus) (UniProt P31648); assay: Displacement of NO711 from mouse GAT1 expressed in HEK293 cells assessed as NO711 binding at 100 uM by LC-MS/MS analysis; type: cell-based

Compound | Rf [1] | pIC50 [2] | pIC50 (GABA transporter 2) | pIC50 (GABA transporter 3) | pIC50 (GABA transporter 4) | pKi [3] | Rf [4] | Activity [5]
NCCC(NCCC=C(c1ccccc1)c1ccccc1)C(=O)NCc1ccc(Cl)cc1 (centres undefined) | 0.14 | 4.78 | 5.02 | 4.75 | 4.93 | 4.79 |  | 
CN(CCCC(c1ccccc1)c1ccccc1)C(CCN)C(=O)NCc1ccccc1Cl (centres undefined) | 0.15 | 4.90 | 5.11 | 4.72 | 4.94 | 4.67 |  | 
NCCC(NCCC=C(c1ccccc1)c1ccccc1)C(=O)NCc1ccccc1 (centres undefined) | 0.16 | 4.51 | 5.10 | 4.48 | 4.59 | 4.76 |  | 
Cc1ccc(CNC(=O)C(CCN)N2CCC(=C(c3ccccc3)c3ccccc3)CC2)cc1 (centres undefined) |  | 4.95 | 5.23 | 4.79 | 4.94 | 4.53 | 0.73 | 
CN(CCC=C(c1ccccc1)c1ccccc1)C(CCN)C(=O)NCc1ccccc1Cl (centres undefined) |  | 4.89 | 5.19 | 5.00 | 5.04 | 4.96 | 0.76 | 
Cc1ccc(CNC(=O)C(CCN)N(C)CCCC(c2ccccc2)c2ccccc2)cc1 (centres undefined) | 0.17 | 4.91 | 4.85 | 4.64 | 5.08 | 4.81 |  | 
NCCC(C(=O)NCc1ccc(F)cc1)N1CCN(C(c2ccccc2)c2ccccc2)CC1 (centres undefined) |  | 4.63 | 4.51 | 4.47 | 4.43 | 4.18 | 0.12 | 
NCCC(C(=O)NCc1ccccc1)N1CCN(C(c2ccccc2)c2ccccc2)CC1 (centres undefined) |  | 4.35 | 4.42 | 4.57 | 4.23 |  | 0.15 | 83%
NCCC(NCCC=C(c1ccccc1)c1ccccc1)C(=O)NCc1ccc(F)cc1 (centres undefined) | 0.15 | 4.56 | 4.92 | 4.61 | 4.50 | 4.64 |  | 
NCCC(NCCC=C(c1ccccc1)c1ccccc1)C(=O)NCc1ccccc1Cl (centres undefined) | 0.15 | 4.80 | 5.16 | 4.62 | 4.99 |  |  | 53%

Continued by rising pIC50 [2], values first:

Rf [1] | pIC50 [2] | pIC50 (GABA transporter 2) | pIC50 (GABA transporter 3) | pIC50 (GABA transporter 4) | pKi [3] | Rf [4] | Activity [5] | Compound
0.16 | 4.71 | 5.05 | 4.53 | 4.82 | 4.96 |  |  | Cc1ccc(CNC(=O)C(CCN)NCCC=C(c2ccccc2)c2ccccc2)cc1 (centres undefined)
 | 4.86 | 5.23 | 4.96 | 4.99 | 4.59 | 0.79 |  | NCCC(C(=O)NCc1ccccc1Cl)N1CCC(C(c2ccccc2)c2ccccc2)CC1 (centres undefined)
 | 4.86 | 4.89 | 4.96 | 4.90 | 4.80 | 0.79 |  | CN(CCC=C(c1ccccc1)c1ccccc1)C(CCN)C(=O)NCc1ccc(F)cc1 (centres undefined)
 | 4.96 | 4.81 | 4.86 | 4.92 | 4.78 | 0.74 |  | NCCC(C(=O)NCc1ccccc1)N1CCC(=C(c2ccccc2)c2ccccc2)CC1 (centres undefined)
